Source: patent publication US9700531B2, “Composition comprising metformin as active ingredient for preventing or treating inflammatory bowel disease” (CATHOLIC UNIVERSITY INDUSTRY ACADEMIC COOPERATION FOUNDATION, priority 2012, dated 2017)
“Also recorded” adds a separate entry of the source.

Columns and labels:
[1] = tested on: Th17 cell and regulatory Treg cell in the spleen; experiment: Th17 cells and regulatory Treg cells in spleen of mouse injected with Metformin (confocal assay); assay type: in vivo
[2] = tested on: colorectal tissues of the group with an inflammatory bowel disease; experiment: Expression of inflammatory cytokines in colorectal tissues and cells of the large intestine of mouse injected with Metformin; assay type: in vivo
Excerpt: FIGS. 6A-6B illustrate the results of measuring the inflammatory cytokine regulations caused by Metformin in the colorectal tissues and colorectal cells of the group with an inflammatory bowel disease.
Furthermore, the expressions of the inflammatory cytokine IL-10 and TGF-b were increased by Metformin.

[3] = tested on: spleen cells of a normal mouse group; experiment: ELISA of cytokines in culture media of treated cells of the normal mouse group; assay type: cell-based; conditions: culture media collected at 3 days after treatment
Excerpt: The inventors treated Metformin and the Metformin-Etanercept (Product Name: Enbrel®) composite to the cells of the normal mouse group to identify the effects of Etanercept (Product Name: Enbrel®) and Metformin on the expression of cytokine.

[4] = tested on: spleen cells of a normal mouse group; experiment: ROS measurement by FACs (ROS antibody, FITC) in spleen cells of a normal mouse group; assay type: cell-based; conditions: cells collected at 3 days after treatment
Experimental: The oxidative stress was known to be an important factor involved in the inflammatory responses of various autoimmune diseases. […] Enbrel®) composite and at 3 days later, each cell was collected and reacted with an ROS antibody with a FITC wavelength range, and then, was measured using fluorescence activated cell sorting (FACs).

[5] = tested on: inflammatory bowel disease-induced animal model; experiment: Inflammatory bowel disease animal model (3.5% DSS water for a week): weight, survival, thickness of small intestine, length of large intestine; assay type: in vivo, C57BL/6(H-2kb) mouse; conditions: for thickness of the intestine: Metformin 5 mg oral, Etanercept 100 μg subcutaneous or composite, at 3 days after induction
Excerpt: The inventors of the present invention first prepared the animal model with an inflammatory bowel disease in order to identify whether the Metformin of the present invention can treat an inflammatory bowel disease. For an experimental animal, a C57BL/6(H-2kb) mouse was used, and to prepare the animal model with an inflammatory bowel disease, the mouse taken with 3.5% dextran sulfate sodium (DSS) water for a week to prepare an animal model with an inflammatory bowel disease.
The inventors divided the experimental animals into an inflammatory bowel disease-induced animal model group, and an inflammatory bowel disease-induced animal model group, which was administered with Metformin, and for the group being administered with Metformin, 5 mg of Metformin was orally administered at 3 days after the disease was induced.

[6] = tested on: cell line of human large intestine; experiment: Gene expression of inflammatory cytokines in cell line of human large intestine treated with Metformin; assay type: cell-based
Experimental: The gene expressions of the inflammatory cytokines TNF-α, IL-8, and IL-1b were investigated after the cell line of human large intestine was treated with Metformin.

[7] = tested on: STAT3, mTOR, AMPK, STAT5 in spleen tissue; experiment: Signaling molecules in spleen of mouse administered with Metformin (tissue confocal, spleen cell proteins); assay type: in vivo
[8] = tested on: lymph node of the group with an inflammatory bowel disease; experiment: Expression of inflammatory cytokines in lymph node of mouse injected with Metformin; assay type: in vivo
Excerpt: FIG. 7 illustrates the result of measuring the inflammatory cytokine regulations caused by Metformin in the lymph node tissues and cells of the group with an inflammatory bowel disease.

[9] = tested on: spleen cells of a normal mouse group
[10] = 5 mg Metformin orally 3 days after induction, versus control group
[11] = 5 mg Metformin orally, the words describe the control group relative to the Metformin group

CN(C)C(=N)NC(=N)N [Metformin]
expressions of Th17 cells in spleen [1]: considerably inhibited | regulatory T cells that express Foxp3 in spleen [1]: significantly increased | expression of IL-6 in colorectal tissues (histological findings) [2]: considerable decrease | expression of IL-8 in colorectal tissues (histological findings) [2]: considerable decrease | expression of IL-17 in colorectal tissues (histological findings) [2]: considerable decrease | expression of TNF-α in colorectal tissues (histological findings) [2]: considerable decrease | gene expressions of the inflammatory cytokines in the cells of the large intestine [2]: considerably inhibited | Foxp3 (regulatory T cell factor) ([2]; large intestine): increased | expression of IL-10 ([2]; large intestine): increased | expression of TGF-b ([2]; large intestine): increased | expression of IL-17 (ELISA) [3]: effective in inhibiting | ROS inhibition [4]: no ROS inhibitory effect; also recorded: no effects of ROS inhibition | survival rates (in words) [5, 10]: higher survival rates | weights (in words) [5, 10]: increase in weights | survival rate ([5]; 5 mg Metformin orally at 3 days after disease induction, control group had low survival rate): 100% | length of large intestine (histological findings) [5, 11]: shortened length was observed | thickness of small intestine (histological findings) [5, 11]: narrower than the group treated with Metformin | thickness of the intestine ([5]; versus control group): thicker | gene expression of IL-1b [6]: inhibited in a Metformin concentration dependent manner | gene expression of IL-8 [6]: inhibited in a Metformin concentration dependent manner | gene expression of TNF-α [6]: inhibited in a Metformin concentration dependent manner | activated AMPK ([7]; spleen cell proteins): increased | phosphorylated STAT3, 705, and 727 ([7]; spleen cell proteins): significantly inhibited | activity of STA3 in spleen cells ([7]; tissue confocal): considerably inhibited | activity of mTOR in spleen cells ([7]; tissue confocal): considerably inhibited | cells with the activated AMPK ([7]; tissue confocal, spleen): increased | cells with the activated STAT5 ([7]; tissue confocal, spleen): increased | gene expression of IL-6 in lymph node [8]: considerable decreases | gene expression of IL-17 in lymph node [8]: considerable decreases | gene expression of IL-21 in lymph node [8]: considerable decreases | gene expression of TNF-α in lymph node [8]: considerable decreases | toxic effects (MTT assay) [9]: no toxic effects

Etanercept
expression of IL-17 (ELISA) [3]: effective in inhibiting | ROS inhibition [4]: no ROS inhibitory effect; also recorded: no effects of ROS inhibition | thickness of the intestine ([5]; versus control group): thicker | toxic effects (MTT assay) [9]: no toxic effects
